Results: PMC5483439, “The Effect of Pungent and Tingling Compounds from Piper nigrum L. on Background K^+ Currents” (Frontiers in Pharmacology, 2017)

Key:
mKCNK9 = biological target: T1, mKCNK9 (Mus musculus, UniProt Q3LS21); experiment: Two-electrode voltage clamp on Xenopus oocytes expressing mKCNK9; format: cell-based; settings: 1–1000 μM
T1 construct: expressed in transfected cells; host or cells: Xenopus laevis oocytes injected with cRNA (subcloned into pSGEM; clone from Dr. D. Bayliss)
From the text: (§1) Human KCNK3 (TASK-1, K2P3.1) cloned into the expression vector pIRES-CD8 was a gift from Dr. Fabrice Duprat (Institut National de la Santé et de la Recherche Médicale, Antipolis, France). Human KCNK18 (hTRESK, K2P18.1), cloned into the plasmid pEXO, was a gift from Dr. P. Enyedi (Semmelweis University, Budapest, Hungary). These plasmids were linearized with the restriction enzymes BamHI and XbaI, respectively, and then used as templates for in vitro transcription. Human KCNK9 (hTASK-3, K2P9.1) cloned into the expression vector pCR4-TOPO, was purchased from Imagenes (Berlin, Germany). The plasmid was linearized with the restriction enzyme SspI, to generate a linear cDNA template for in vitro transcription. mKCNK3 was isolated from mouse heart by standard procedures and inserted into pSGEM. mKCNK9 and mKCNK18 were kindly provided by Dr. D. Bayliss (University of Virginia, Charlottesville, VA, United States) and Prof. Dr. P. Enyedi (Semmelweis University, Budapest, Hungary). Both channels were subcloned into pSGEM. The pSGEM plasmids were subsequently linearized with the restriction enzyme PacI. The capped RNAs were synthesized in the presence of the capping analog m7G(5′)ppp(5′)G using the AmpliCap-T7 Message Maker kit (Epicentre, Madison, WI, United States). The cRNA was dissolved in nuclease-free water to obtain a final concentration of 100 ng/μL. […]

mKCNK18 = test system: T2, mKCNK18; experiment: Two-electrode voltage clamp on Xenopus oocytes expressing mKCNK18; format: cell-based, mouse; settings: 1–1000 μM
T2 construct: expressed in transfected cells; host or cells: Xenopus laevis oocytes injected with cRNA (subcloned into pSGEM; clone from Prof; Dr. P. Enyedi)
From the text: as §1

hKCNK3 = biological target: T3, hKCNK3 (Homo sapiens, UniProt O14649); design: method as in Beltrán et al., 2013; settings: hKCNK3 in Xenopus oocytes; ref Beltrán et al., 2013; cited from earlier work
T3 construct: expressed in transfected cells; host or cells: Xenopus laevis oocytes injected with cRNA (plasmid pIRES-CD8, gift of Dr. Fabrice Duprat)

tongue surface = test system: tongue surface; design: method as in Dawid et al., 2012; settings: human, filter paper on tongue; ref Dawid et al., 2012; cited from earlier work

T3 sequence (O14649 whole entry): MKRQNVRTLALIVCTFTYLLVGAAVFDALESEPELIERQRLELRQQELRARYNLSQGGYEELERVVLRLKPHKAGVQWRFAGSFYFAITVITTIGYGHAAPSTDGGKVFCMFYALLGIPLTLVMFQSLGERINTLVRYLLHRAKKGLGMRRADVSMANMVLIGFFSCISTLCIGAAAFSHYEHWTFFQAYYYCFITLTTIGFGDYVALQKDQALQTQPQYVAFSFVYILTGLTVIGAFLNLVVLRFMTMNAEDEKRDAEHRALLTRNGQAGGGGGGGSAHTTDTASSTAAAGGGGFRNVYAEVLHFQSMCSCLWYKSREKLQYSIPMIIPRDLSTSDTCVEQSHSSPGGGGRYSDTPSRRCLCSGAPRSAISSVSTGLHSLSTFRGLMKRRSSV
T1 sequence (Q3LS21 whole entry): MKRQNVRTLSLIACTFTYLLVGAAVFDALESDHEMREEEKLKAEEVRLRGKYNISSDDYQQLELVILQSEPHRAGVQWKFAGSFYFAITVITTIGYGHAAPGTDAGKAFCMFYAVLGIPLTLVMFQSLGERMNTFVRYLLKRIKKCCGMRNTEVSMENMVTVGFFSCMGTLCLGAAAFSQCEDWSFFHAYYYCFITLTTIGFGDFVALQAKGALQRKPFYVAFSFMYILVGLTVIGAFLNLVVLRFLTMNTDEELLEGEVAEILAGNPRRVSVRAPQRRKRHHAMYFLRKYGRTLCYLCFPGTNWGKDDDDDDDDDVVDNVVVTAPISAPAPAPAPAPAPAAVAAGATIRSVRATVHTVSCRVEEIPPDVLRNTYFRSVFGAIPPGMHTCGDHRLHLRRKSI

In the case of `O=C(/C=C/C=C/c1ccc2c(c1)OCO2)N1CCCCC1` [1a, piperine], the IC50 (mKCNK9) is listed as 214 ± 60.1 µM, the “effect on mKCNK18” value (mKCNK18) is listed as “much less affected” and the “% of basal activity after saturating concentrations” value (hKCNK3) is listed as 46 ± 10%. For the same molecule, the pungent threshold concentration (tongue surface) was 3.0 nmol/cm^2.
